System: Salmonella Typhimurium TA100
Details: TA100, positive control 15 μg/mL
Experimental: The mutagenic potential of the tested gemini QAS was determined using the Ames test[83] using Salmonella Typhimurium TA98 and Salmonella Typhimurium TA100 with defects in histidine biosynthesis. The culture of S. Typhimurium TA98 and S. Typhimurium TA100 was incubated with shaking at 37 °C for 18 h, centrifuged (3000 rpm, 5 min) and OD = 1.5 was determined, at a wavelength of λ = 590 nm. The agar was dissolved and cooled to 42 °C. […] The media were incubated for 48 h at 37 °C. The positive control for the S. Typhimurium TA98 strain was acriflavin (100 μg/ml), and for the S. Typhimurium TA100 strain, sodium azide (15 μg/ml). The negative control was the culture without tested compound and with NaCl (0,9%). After incubation, the colonies were counted and the mutagenicity index (MR) was determined—the ratio of the number of revertants resulting from the mutagenic effect of the tested compound to the number of spontaneous revertants. Experiment was performed in three repetitions.

Compound: [N-]=[N+]=[N-].[Na+] [sodium azide, reference compound]
- Mutagenicity ratio (MR): 25.5
- Number of colonies (± SD): 5116.0 ± 5.66

Source: paper PMC11187217, “Anti-adhesive, anti-biofilm and fungicidal action of newly synthesized gemini quaternary ammonium salts” (Scientific Reports, 2024)
